Experimental data: patent US11591365B2, “BCL9 peptides and variants thereof” (WntRx Pharmaceuticals Inc., priority 2017, dated 2023)
*1 amine or outer side, *2 acyl side, *3 side chain or, on linkers, in order; H or OH if unused. Where a SMILES comes first, the peptide text is derived from it. Bridges are numbered along the chain shown (N, C = ends). [ ]: non-standard residue; d: D form. The star is where a group is joined. 2Nal = N[C@@H](Cc1ccc2ccccc2c1)C(=O)O; X1 = NC(=O)CCCCN(CC(=O)[*:2])[*:1]; NMeR = CN[C@@H](CCCNC(=N)N)C(=O)O; Palmitoyl = CCCCCCCCCCCCCCCC(=O)*; hArg = N=C(N)NCCCC[C@H](N)C(=O)O; NMeQ = CN[C@@H](CCC(N)=O)C(=O)O; NMeD = CN[C@@H](CC(=O)O)C(=O)O; Cba = N[C@@H](CC1CCC1)C(=O)O; PEG4 = NCCOCCOCCOCCOCCC(=O)O; S5 = C=CCCC[C@](C)(N)C(=O)O

system: Colo320DM; assay: Colo320DM cell viability; assay type: cell-based, human
Text: In some embodiments, a polypeptide described herein inhibits binding of BLC9 to β-catenin when assessed in a cell-viability assay. In some embodiments, the cell-viability assay is a CellTiterGlo luminescent assay, wherein the viability of cells is quantitatively measured. Various cell lines, transformed cell lines or primary cells derived from a healthy subject or subject suffering from a disease can be used in this assay.

| IC50 | Structure (SMILES) |
| --- | --- |
| 2.15 µM | CC[C@H](C)[C@@H]1NC(=O)[C@@](C)(NC(=O)[C@H](CCCNC(=N)N)NC(=O)[C@H](CC(C)C)NC(=O)[C@@H](NC(=O)[C@H](CCC(N)=O)N(C)C(=O)[C@H](CC(C)C)NC(=O)[C@H](CO)NC(=O)[C@H](CCCNC(=N)N)NC(=O)[C@H](CCC(N)=O)N(C)C(=O)[C@H](CCCNC(=N)N)NC(=O)[C@H](Cc2c[nH]cn2)NC(C)=O)[C@@H](C)O)CCCC=CCCC[C@@](C)(C(=O)N[C@@H](CC2CCC2)C(=O)N[C@@H](Cc2ccc3ccccc3c2)C(N)=O)NC(=O)[C@H](CCCNC(=N)N)NC(=O)[C@H](CCC(N)=O)NC1=O [SEQ ID NO: 155, HR(N-methylQ)RSL(N-methylQ)TLRXIQRX(CBA)(2-Nal)] (Ac-HR[NMeQ]RSL[NMeQ]TLR[S5]IQR[S5][Cba][2Nal]-NH2; staple 11-15) |
| 3.17 µM | CC[C@H](C)[C@@H]1NC(=O)[C@@](C)(NC(=O)[C@H](CCCNC(=N)N)NC(=O)[C@H](CC(C)C)NC(=O)[C@@H](NC(=O)[C@H](CCC(N)=O)NC(=O)[C@H](CC(C)C)NC(=O)[C@H](CO)NC(=O)[C@H](CCCNC(=N)N)NC(=O)[C@H](CC(=O)O)N(C)C(=O)[C@H](CCCNC(=N)N)NC(=O)[C@H](Cc2c[nH]cn2)NC(C)=O)[C@@H](C)O)CCCC=CCCC[C@@](C)(C(=O)N[C@@H](CC2CCC2)C(=O)N[C@@H](Cc2ccc3ccccc3c2)C(N)=O)NC(=O)[C@H](CCCNC(=N)N)NC(=O)[C@H](CCC(N)=O)NC1=O [SEQ ID NO: 157, HR(N-methylD)RSLQTLRXIQRX(CBA)(2-Nal)] (Ac-HR[NMeD]RSLQTLR[S5]IQR[S5][Cba][2Nal]-NH2; staple 11-15) |
| 2.48 µM | CC[C@H](C)[C@@H]1NC(=O)[C@@](C)(NC(=O)[C@H](CCCNC(=N)N)NC(=O)[C@H](CC(C)C)NC(=O)[C@@H](NC(=O)[C@H](CCC(N)=O)NC(=O)[C@H](CC(C)C)NC(=O)[C@@H](NC(=O)[C@H](CCCNC(=N)N)NC(=O)[C@H](CCC(N)=O)NC(=O)[C@H](CCCNC(=N)N)NC(=O)[C@H](Cc2c[nH]cn2)NC(C)=O)[C@@H](C)O)[C@@H](C)O)CCCC=CCCC[C@@](C)(C(=O)N[C@@H](CC2CCC2)C(=O)N[C@@H](Cc2ccc3ccccc3c2)C(N)=O)NC(=O)[C@H](CCCNC(=N)N)NC(=O)[C@H](CCC(N)=O)NC1=O [SEQ ID NO: 159, HRQRTLQTLRXIQRX(CBA)(2-Nal)] (Ac-HRQRTLQTLR[S5]IQR[S5][Cba][2Nal]-NH2; staple 11-15) |
| 4.76 µM | CC[C@H](C)[C@@H]1NC(=O)[C@@](C)(NC(=O)[C@H](CCCNC(=N)N)NC(=O)[C@H](CC(C)C)NC(=O)[C@@H](NC(=O)[C@H](CCC(N)=O)NC(=O)[C@H](CC(C)C)NC(=O)[C@H](CO)NC(=O)[C@H](CCCCNC(=N)N)NC(=O)[C@H](CCC(N)=O)NC(=O)[C@H](CCCNC(=N)N)NC(=O)[C@H](Cc2c[nH]cn2)NC(C)=O)[C@@H](C)O)CCCC=CCCC[C@@](C)(C(=O)N[C@@H](CC2CCC2)C(=O)N[C@@H](Cc2ccc3ccccc3c2)C(N)=O)NC(=O)[C@H](CCCNC(=N)N)NC(=O)[C@H](CCC(N)=O)NC1=O [SEQ ID NO: 167, HRQ(homoR)SLQTLRXIQRX(CBA)(2-Nal)] (Ac-HRQ[hArg]SLQTLR[S5]IQR[S5][Cba][2Nal]-NH2; staple 11-15) |
| 4.14 µM | CC[C@H](C)[C@@H]1NC(=O)[C@@](C)(NC(=O)[C@H](CCCNC(=N)N)NC(=O)[C@H](CC(C)C)NC(=O)[C@@H](NC(=O)[C@H](CCC(N)=O)NC(=O)[C@H](CC(C)C)NC(=O)[C@H](CO)NC(=O)[C@H](CCCNC(=N)N)N(C)C(=O)[C@H](CCC(N)=O)NC(=O)[C@H](CCCNC(=N)N)NC(=O)[C@H](Cc2c[nH]cn2)NC(C)=O)[C@@H](C)O)CCCC=CCCC[C@@](C)(C(=O)N[C@@H](CC2CCC2)C(=O)N[C@@H](Cc2ccc3ccccc3c2)C(N)=O)NC(=O)[C@H](CCCNC(=N)N)NC(=O)[C@H](CCC(N)=O)NC1=O [SEQ ID NO: 168, HRQ(N-methylR)SLQTLRXIQRX(CBA)(2-Nal)] (Ac-HRQ[NMeR]SLQTLR[S5]IQR[S5][Cba][2Nal]-NH2; staple 11-15; N-terminus and C-terminus assumed) |

Further lines, the compound ahead of its results:

| Structure (SMILES) | IC50 |
| --- | --- |
| CC[C@H](C)[C@@H]1NC(=O)[C@@](C)(NC(=O)[C@H](CCCNC(=N)N)NC(=O)[C@H](CC(C)C)NC(=O)[C@@H](NC(=O)[C@H](CCC(N)=O)NC(=O)[C@H](CC2CCC2)NC(=O)[C@H](CO)NC(=O)[C@H](CCCNC(=N)N)NC(=O)[C@H](CCC(N)=O)NC(=O)[C@H](CCCNC(=N)N)NC(=O)[C@H](Cc2c[nH]cn2)NC(C)=O)[C@@H](C)O)CCCC=CCCC[C@@](C)(C(=O)N[C@@H](CC2CCC2)C(=O)N[C@@H](Cc2ccc3ccccc3c2)C(N)=O)NC(=O)[C@H](CCCNC(=N)N)NC(=O)[C@H](CCC(N)=O)NC1=O [SEQ ID NO: 156, HRQRS(CBA)QTLRXIQRX(CBA)(2-Nal)] (Ac-HRQRS[Cba]QTLR[S5]IQR[S5][Cba][2Nal]-NH2; staple 11-15) | 2.63 µM |
| CCCCCCCCCCCCCCCC(=O)NCCOCCOCCOCCOCCC(=O)N[C@@H](Cc1c[nH]cn1)C(=O)N[C@@H](CCCNC(=N)N)C(=O)N[C@@H](CCC(N)=O)C(=O)N[C@@H](CCCNC(=N)N)C(=O)N[C@@H](CO)C(=O)N[C@@H](CC(C)C)C(=O)N[C@@H](CCC(N)=O)C(=O)N[C@H](C(=O)N[C@@H](CC(C)C)C(=O)N[C@@H](CCCNC(=N)N)C(=O)N[C@@]1(C)CCCC=CCCC[C@@](C)(C(=O)N[C@@H](CC2CCC2)C(=O)N[C@@H](Cc2ccc3ccccc3c2)C(N)=O)NC(=O)[C@H](CCCNC(=N)N)NC(=O)[C@H](CCC(N)=O)NC(=O)[C@H]([C@@H](C)CC)NC1=O)[C@@H](C)O [SEQ ID NO: 160, HRQRSLQTLRXIQRX(CBA)(2-Nal)] ({Palmitoyl-PEG4}-HRQRSLQTLR[S5]IQR[S5][Cba][2Nal]-NH2; staple 11-15) | 0.83 µM |
| CCCCCCCCCCCCCCCC(=O)NCCOCCOCCOCCOCCC(=O)NCCCC[C@H](NC(=O)[C@H](Cc1ccc2ccccc2c1)NC(=O)[C@H](CC1CCC1)NC(=O)[C@]1(C)CCCC=CCCC[C@](C)(NC(=O)[C@H](CCCNC(=N)N)NC(=O)[C@H](CC(C)C)NC(=O)[C@@H](NC(=O)[C@H](CCC(N)=O)NC(=O)[C@H](CC(C)C)NC(=O)[C@H](CO)NC(=O)[C@H](CCCNC(=N)N)NC(=O)[C@H](CCC(N)=O)NC(=O)[C@H](CCCNC(=N)N)NC(=O)[C@H](Cc2c[nH]cn2)NC(C)=O)[C@@H](C)O)C(=O)N[C@@H]([C@@H](C)CC)C(=O)N[C@@H](CCC(N)=O)C(=O)N[C@@H](CCCNC(=N)N)C(=O)N1)C(N)=O [SEQ ID NO: 161, HRQRSLQTLRXIQRX(CBA)(2-Nal)] | 3.35 µM |
| CC[C@H](C)[C@@H]1NC(=O)[C@@](C)(NC(=O)[C@H](CCCNC(=N)N)NC(=O)[C@H](CC(C)C)NC(=O)[C@@H](NC(=O)CN(CCCCC(N)=O)C(=O)[C@H](CC(C)C)NC(=O)[C@H](CO)NC(=O)[C@H](CCCNC(=N)N)NC(=O)[C@H](CCC(N)=O)NC(=O)[C@H](CCCNC(=N)N)NC(=O)[C@H](Cc2c[nH]cn2)NC(C)=O)[C@@H](C)O)CCCC=CCCC[C@@](C)(C(=O)N[C@@H](CC2CCC2)C(=O)N[C@@H](Cc2ccc3ccccc3c2)C(N)=O)NC(=O)[C@H](CCCNC(=N)N)NC(=O)[C@H](CCC(N)=O)NC1=O [SEQ ID NO: 169, HRQRSL(peptoid-Q)TLRXIQRX(CBA)(2-Nal)] (Ac-HRQRSL[X1]TLR[S5]IQR[S5][Cba][2Nal]-NH2; staple 11-15) | 4.98 µM |
